Data: patent US10221173B2, “Chemical compounds” (AstraZeneca AB, priority 2017, dated 2019)
Values after ≈ are worked out from the molar mass of the structure shown.

Key:
ER = ER (Homo sapiens (Human), UniProt P03372); details: 500 mg monthly dose; cited from earlier work
[1] = target: recombinant human Estrogen Receptor alpha ligand binding domain (ER alpha-LBD (GST)) (Homo sapiens (Human), UniProt P03372); assay: ERα binding assay (LanthaScreen TR-FRET competition)
[2] = target: T1, Estrogen Receptor (ERα) in MCF-7 cells (Homo sapiens (Human), UniProt P03372); assay: MCF-7 ER down-regulation assay (immuno-fluorescence); assay type: cell-based
[3] = target: estrogen receptor (ERα) in CAMA-1 cells (Homo sapiens (Human), UniProt P03372); assay: Western blotting assay, ER down-regulation in CAMA-1; assay type: cell-based; details: CAMA-1, 100 nM compound, 48 h, vs 100 nM fulvestrant
[4] = target: T1, Estrogen Receptor (ERα) in MCF-7 cells; assay: Western blotting assay, ER down-regulation in MCF-7; assay type: cell-based; details: MCF-7, 100 nM compound, 48 h, vs 100 nM fulvestrant
[5] = Log D (shake flask, 1-octanol/aqueous buffer); assay type: physicochemical; details: 1-octanol/aqueous buffer, pH 7.4, pH 7.4
[6] = Thermodynamic solubility (shake-flask); assay type: physicochemical; details: aqueous phosphate buffer, 25 °C, pH 7.4, aqueous buffer, thermodynamic from solid, phosphate buffer pH 7.4, 24 hours
[7] = Human plasma protein binding (equilibrium dialysis); assay type: in vitro ADME
hERG potassium channel = hERG potassium channel (Homo sapiens (Human), UniProt Q12809)
Sequence of hERG potassium channel (Q12809 whole entry): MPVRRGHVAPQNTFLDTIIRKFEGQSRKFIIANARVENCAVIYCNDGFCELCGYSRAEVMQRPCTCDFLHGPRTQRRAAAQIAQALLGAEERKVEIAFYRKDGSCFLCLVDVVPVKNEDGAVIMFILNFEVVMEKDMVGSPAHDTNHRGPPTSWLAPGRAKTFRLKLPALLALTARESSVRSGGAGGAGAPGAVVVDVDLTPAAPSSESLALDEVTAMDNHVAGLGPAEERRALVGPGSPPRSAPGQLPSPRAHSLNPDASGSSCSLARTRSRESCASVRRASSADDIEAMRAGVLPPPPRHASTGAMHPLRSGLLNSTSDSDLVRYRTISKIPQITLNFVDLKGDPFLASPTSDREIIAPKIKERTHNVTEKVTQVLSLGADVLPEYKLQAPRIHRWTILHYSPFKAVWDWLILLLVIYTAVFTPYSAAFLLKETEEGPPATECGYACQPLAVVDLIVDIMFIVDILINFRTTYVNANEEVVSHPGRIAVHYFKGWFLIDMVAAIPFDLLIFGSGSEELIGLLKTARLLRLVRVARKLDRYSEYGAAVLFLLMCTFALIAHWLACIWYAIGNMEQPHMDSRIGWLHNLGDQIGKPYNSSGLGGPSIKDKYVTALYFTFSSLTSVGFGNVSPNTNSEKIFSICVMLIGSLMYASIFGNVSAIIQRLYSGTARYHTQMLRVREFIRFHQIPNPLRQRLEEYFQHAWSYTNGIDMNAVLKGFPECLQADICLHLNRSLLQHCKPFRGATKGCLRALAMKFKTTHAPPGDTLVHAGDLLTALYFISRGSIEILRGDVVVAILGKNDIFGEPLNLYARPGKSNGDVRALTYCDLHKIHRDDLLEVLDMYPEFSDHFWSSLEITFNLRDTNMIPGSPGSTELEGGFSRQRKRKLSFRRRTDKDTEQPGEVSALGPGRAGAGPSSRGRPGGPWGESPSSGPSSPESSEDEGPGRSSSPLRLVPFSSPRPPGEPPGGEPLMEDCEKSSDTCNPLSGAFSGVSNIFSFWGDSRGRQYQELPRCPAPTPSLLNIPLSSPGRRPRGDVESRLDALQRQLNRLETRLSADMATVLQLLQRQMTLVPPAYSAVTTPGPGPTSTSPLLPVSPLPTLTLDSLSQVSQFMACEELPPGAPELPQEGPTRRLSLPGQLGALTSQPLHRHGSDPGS

T1 sequence (P03372 whole entry): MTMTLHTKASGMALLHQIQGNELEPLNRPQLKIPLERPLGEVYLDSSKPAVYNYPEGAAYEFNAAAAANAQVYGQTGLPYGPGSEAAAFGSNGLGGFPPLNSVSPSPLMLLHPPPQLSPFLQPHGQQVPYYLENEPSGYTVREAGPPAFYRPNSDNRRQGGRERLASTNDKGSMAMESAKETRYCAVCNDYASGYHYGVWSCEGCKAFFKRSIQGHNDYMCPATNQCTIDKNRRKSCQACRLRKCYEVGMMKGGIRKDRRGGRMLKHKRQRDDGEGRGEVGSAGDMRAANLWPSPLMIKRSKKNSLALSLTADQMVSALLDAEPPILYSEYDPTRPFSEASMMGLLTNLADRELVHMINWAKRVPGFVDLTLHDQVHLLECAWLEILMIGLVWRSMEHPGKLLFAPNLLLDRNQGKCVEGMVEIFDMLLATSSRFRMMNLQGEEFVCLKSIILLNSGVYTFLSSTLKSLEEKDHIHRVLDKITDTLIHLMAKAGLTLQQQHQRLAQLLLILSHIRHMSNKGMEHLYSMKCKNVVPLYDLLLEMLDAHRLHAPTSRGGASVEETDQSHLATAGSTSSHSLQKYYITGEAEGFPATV
Sequence of estrogen receptor (ERα) in CAMA-1 cells (P03372 whole entry): as above
Sequence of recombinant human Estrogen Receptor alpha ligand binding domain (ER alpha-LBD (GST)) (P03372 307-554): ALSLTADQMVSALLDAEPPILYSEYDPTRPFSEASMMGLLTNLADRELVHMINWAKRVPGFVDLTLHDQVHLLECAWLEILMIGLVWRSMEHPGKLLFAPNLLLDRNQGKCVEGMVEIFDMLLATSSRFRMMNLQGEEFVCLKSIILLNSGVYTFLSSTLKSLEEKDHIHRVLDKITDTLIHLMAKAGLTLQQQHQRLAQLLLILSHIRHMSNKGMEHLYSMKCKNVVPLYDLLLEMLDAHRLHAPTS
Sequence of ER (P03372 whole entry, the tested form may be a part): as the sequence (P03372 whole entry) above

In the case of `C[C@]12CC[C@@H]3c4ccc(O)cc4C[C@@H](CCCCCCCCC[S+]([O-])CCCC(F)(F)C(F)(F)F)[C@H]3[C@@H]1CC[C@@H]2O` (stereo partly shown) [Fulvestrant], the “turnover of the receptor in patient samples” value (ER) is listed as “less than 50%”.
In the case of `C[C@@H]1Cc2c([nH]c3cc(F)ccc23)[C@@H](c2c(F)ccc(OCCNCCCF)c2F)N1CC(F)(F)CO` [Example 61, 3-((1R,3R)-1-(2,6-difluoro-3-(2-((3-fluoropropyl)amino)ethoxy)phenyl)-7-fluoro-3-methyl-1,3,4,9-tetrahydro-2H-pyrido[3,4-b]indol-2-yl)-2,2-difluoropropan-1-ol], the IC50 [1] is reported as 0.79 nM, the IC50 [2] is reported as 0.19 nM and the “CAMA1 Western % ER deg vs Fv” value [3] is reported as 83%. The “MCF7 Western % ER deg vs Fv” value [4] was 94%, the logD [5] was 3 and the solubility at 24 h [6] was 446 µM (≈ 236 µg/mL). The “Human plasma protein binding (% free)” value [7] was 2.0 % free and the IC50 (hERG potassium channel) was 2.7 µM.
In the case of `C[C@@H]1Cc2c([nH]c3ccccc23)[C@@H](c2c(F)ccc(NCCNCCCF)c2F)N1CC(F)(F)F` [Example 88, N1-(2,4-difluoro-3-((1R,3R)-3-methyl-2-(2,2,2-trifluoroethyl)-2,3,4,9-tetrahydro-1H-pyrido[3,4-b]indol-1-yl)phenyl)-N2-(3-fluoropropyl)ethane-1,2-diamine], the IC50 [1] is reported as 2.2 nM, the IC50 [2] is reported as 0.28 nM and the “CAMA1 Western % ER deg vs Fv” value [3] is reported as 93%. The “MCF7 Western % ER deg vs Fv” value [4] was 90%, the logD [5] was 3.4 and the solubility at 24 h [6] was 118 µM (≈ 58.8 µg/mL). The “Human plasma protein binding (% free)” value [7] was 0.58 % free and the IC50 (hERG potassium channel) was 4.8 µM.
With `C[C@@H]1Cc2c([nH]c3ccccc23)[C@@H](c2c(F)cnc(OCCNCCCF)c2F)N1CC(F)(F)F` [Example 107, N-(2-((3,5-difluoro-4-((1R,3R)-3-methyl-2-(2,2,2-trifluoroethyl)-2,3,4,9-tetrahydro-1H-pyrido[3,4-b]indol-1-yl)pyridin-2-yl)oxy)ethyl)-3-fluoropropan-1-amine] the IC50 [1] was 1.3 nM, the IC50 [2] was 0.21 nM and the “CAMA1 Western % ER deg vs Fv” value [3] was 98%. For the same compound, the “MCF7 Western % ER deg vs Fv” value [4] was 95%, the logD [5] was 3.6 and the solubility at 24 h [6] was 120 µM (≈ 60.1 µg/mL). For the same compound, the “Human plasma protein binding (% free)” value [7] was 1 % free and the IC50 (hERG potassium channel) was 8.1 µM.
With `C[C@@H]1Cc2c([nH]c3ccccc23)[C@@H](c2cc(OCCNCCCF)ccc2C#N)N1CC(F)(F)F` [Example 23, 4-(2-((3-fluoropropyl)amino)ethoxy)-2-((1R,3R)-3-methyl-2-(2,2,2-trifluoroethyl)-2,3,4,9-tetrahydro-1H-pyrido[3,4-b]indol-1-yl)benzonitrile] the IC50 [1] was 2.7 nM, the IC50 [2] was 0.5 nM and the “CAMA1 Western % ER deg vs Fv” value [3] was 95%. The “MCF7 Western % ER deg vs Fv” value [4] was 95%, the logD [5] was 3.4 and the solubility at 24 h [6] was 73 µM (≈ 35.7 µg/mL). The “Human plasma protein binding (% free)” value [7] was 3.7 % free and the IC50 (hERG potassium channel) was 5.4 µM.
In the case of `COc1ccc(OCCNCCCF)cc1[C@@H]1c2[nH]c3ccccc3c2C[C@@H](C)N1CC(F)(F)F` [Example 7, 3-Fluoro-N-(2-(4-methoxy-3-((1R,3R)-3-methyl-2-(2,2,2-trifluoroethyl)-2,3,4,9-tetrahydro-1H-pyrido[3,4-b]indol-1-yl)phenoxy)ethyl)propan-1-amine], the IC50 [1] is reported as 1.5 nM, the IC50 [2] is reported as 0.12 nM and the “CAMA1 Western % ER deg vs Fv” value [3] is reported as 90%. The “MCF7 Western % ER deg vs Fv” value [4] was 100%, the logD [5] was 3.7 and the solubility at 24 h [6] was 35 µM (≈ 17.3 µg/mL). The “Human plasma protein binding (% free)” value [7] was 1.5 % free and the IC50 (hERG potassium channel) was 3.8 µM.
In the case of `C[C@@H]1Cc2c([nH]c3c(F)cccc23)[C@@H](c2c(F)ccc(OCCNCCCF)c2F)N1CC(F)(F)CO` [Example 60, 3-((1R,3R)-1-(2,6-difluoro-3-(2-((3-fluoropropyl)amino)ethoxy)phenyl)-8-fluoro-3-methyl-1,3,4,9-tetrahydro-2H-pyrido[3,4-b]indol-2-yl)-2,2-difluoropropan-1-ol], the IC50 [1] is reported as 0.84 nM, the IC50 [2] is reported as 0.12 nM and the “CAMA1 Western % ER deg vs Fv” value [3] is reported as 97%. The “MCF7 Western % ER deg vs Fv” value [4] was 92%, the logD [5] was 3 and the solubility at 24 h [6] was 351 µM (≈ 186 µg/mL). For the same compound, the “Human plasma protein binding (% free)” value [7] was 1.9 % free and the IC50 (hERG potassium channel) was 4.4 µM.
